{
  "source": "patent US20240209371A1",
  "about": "“COMPOSITIONS AND METHODS FOR TREATING CANCER” (Dana-Farber Cancer Institute, Inc., priority 2021, published 2024)",
  "format_in_all_cases": "cell-based",
  "key": {"ERK1/2": {"system": "ERK1/2", "assay": "Western blot after osimertinib treatment in PC9 cells", "method": "(§1) Cells were lysed with RIPA buffer (Boston Bioproducts) supplemented with complete Mini EDTA-free Protease inhibitor cocktail (Roche) and PhoSTOP phosphatase inhibitor cocktail (Roche). The total cell lysate (20 ug) was subjected to SDS polyacrylamide gel electrophoresis and transferred to Immobilon-P polyvinylidene difluoride membranes (Bio-Rad Laboratories). Antibodies are listed in supplementary table 10. RAS-GTP was evaluated using the Active Ras Detection Kit (#8821, Cell Signaling Technology). Cells were cultured with media containing 0.1% FBS with or without 1 μM osimertinib for 24 hours, and 80 ug of GST-Raf1-RBD and 500 ug of protein lysates were used according to the manufacturer's instructions."}, "[1]": {"system": "CRISPR-modified PC9 cell lines", "assay": "Cell viability assay of parental or CRISPR-modified PC9 cells with osimertinib", "method": "Parental or CRISPR-modified PC9 cell lines (1×10^3 cells) were plated in 384-well plates. After 24 hours, cells were treated with drugs at the indicated concentrations for 72 hours. Endpoint cell viability assays were performed using Cell Titer Glo (Promega). RAS mutant cell lines (2×10^3 cells) were seeded in 384 ultra-low attachment plates as suspension cells and evaluated using 3D-Cell Titer Glo (Promega). RAS mutant cells were treated with trametinib for 3 days and with antisense oligos or siRNA for 8 days."}, "RAS-GTP": {"system": "RAS-GTP", "assay": "RAS-GTP assay in KRAS expressing PC9 cell lines", "method": "as §1"}, "Q61 mutant cells": {"system": "Q61 mutant cells", "assay": "Exon skipping by PS+2′MOE antisense oligos in Q61 mutant cells", "details": "in vitro", "method": "RNA was extracted using the RNeasy Mini kit (Qiagen) and cDNA was synthesized using the QuantiTect Reverse Transcription Kit (Qiagen). Isoforms were amplified using gene-specific-primers (FIG. 24) and amplicons were resolved on a 2% agarose gel. Isoforms were characterized by Sanger sequencing.\nRAS mutant cell lines in culture media were treated in suspension with indicated concentrations of morpholino and 3-6 μM endo-porter (Gene Tools). Duration of treatment was 2 days for RNA experiments, 3 days for western blot, and 8 days for growth-inhibition assay based on previously published treatment protocols with KRAS selective inhibitors against RAS mutant cells^4. In all experiments using full PS+2′MOE antisense oligos, medium was enriched with Ca^2+. Ca^2+ enrichment of medium potentiates the in vitro activity of multiple types of oligonucleotides and is more reflective of in vivo conditions than conventional transfection methods^42. Duration of treatment was 2 days for RNA experiments, 6 days for western blot, and 8 days for growth-inhibition assay."}, "mutant KRAS pre-mRNA": {"system": "mutant KRAS pre-mRNA", "assay": "NGS of remaining full-length KRAS transcript in SW948 cells", "details": "dose dependent, decreased from 44%", "excerpt": "The use of mutant selective antisense oligos can be used to induce aberrant splicing only in tumor cells, but not in normal cells lacking the Q61 mutation, minimizing off target toxicity (FIG. 4 panel a). Using this approach, we induced skipping of whole exon 3 in the KRAS GQ60GK lung cancer CALU6 cell line, in a dose dependent manner (FIG. 4 panel b). […] To assess the selectivity of the morpholino for the KRAS mutant over wild type transcript, the identity of the full-length pre-mRNA contributing to the exon 3 spliced mRNA following morpholino treatment needed to be determined. […] We PCR-amplified KRAS cDNA generated from morpholino treated SW948 cells, separated it by gel electrophoresis and analyzed by NGS the remaining full-length transcript, in order to obtain the ratio of mutant versus wild type KRAS pre-mRNA targeted by the morpholino. […] We next evaluated the effect of these oligos on cell growth. As not all RAS mutant cell lines are dependent on RAS signaling for their growth^28, we determined RAS dependency of each of the Q61 mutant cell lines using KRAS, NRAS or HRAS specific siRNAs, and compared our findings to published gene effect scores for dependency by RNAi and CRISPR knock out obtained from Depmap (depmap.org) (FIG. 4 panel e). […] We also evaluated MEK inhibitor sensitivity in a panel of these cell lines using trametinib (FIG. 10 panel b). […]"}},
  "data": [
    {"molecule": "C=CC(=O)Nc1cc(Nc2nccc(-c3cn(C)c4ccccc34)n2)c(OC)cc1N(C)CCN(C)C", "note": "[osimertinib]", "values": [
      {"measurement": "ERK1/2 activation following osimertinib, KRAS GQ60GK c.180_181 delinsAA cells", "setting": "ERK1/2; PC9 KRAS GQ60GK", "result": "persistent ERK1/2 activation"},
      {"measurement": "ERK1/2 activation following osimertinib, KRAS Q61K alone cells", "setting": "ERK1/2; PC9 KRAS Q61K alone", "result": "not in cells expressing KRAS Q61K alone"},
      {"measurement": "effect of osimertinib on KRAS G12C, G12D, A146T, or BRAF V600E clones", "setting": "[1]; 1 μM osimertinib", "result": "largely unaffected"},
      {"measurement": "osimertinib sensitivity of PC9 with heterozygous KRAS GQ60GK or Q61H", "setting": "[1]; heterozygous mutations", "result": "resistance"},
      {"measurement": "osimertinib sensitivity of PC9 clones harboring KRAS Q61K without silent mutation", "setting": "[1]; single-cell clones", "result": "growth inhibition comparable to that of parental PC9 cells"},
      {"measurement": "RAS-GTP levels after osimertinib, KRAS GQ60GK", "setting": "RAS-GTP; PC9 KRAS GQ60GK", "result": "minimally affected"},
      {"measurement": "RAS-GTP after osimertinib, KRAS Q61K single mutant or KRAS wild type parental PC9", "setting": "RAS-GTP; PC9 Q61K or parental", "result": "decrease in RAS-GTP"}
    ]},
    {"molecule": "PS+MOE 1-3: 20nt PS+2′MOE antisense oligo; 1-3 sequence 5′-ACTCCTCTTTGCCTGCTGTG-3′ (all 2'-MOE, all phosphorothioate, methylation of C not given here)", "values": [
      {"measurement": "mutant selective exon skipping compared with morpholino oligos", "setting": "Q61 mutant cells", "result": "mutant selective skipping at a much lower concentration"}
    ]},
    {"molecule": "mor-4: morpholino targeting KRAS Q61L; M4 / mor-4-4 sequence 5′-GTACTCCTCTAGACCTGCTGTGTCG-3′ (all phosphorodiamidate morpholino (PMO))", "values": [
      {"measurement": "fraction of mutant KRAS pre-mRNA within the full-length transcript species", "setting": "mutant KRAS pre-mRNA", "result": 22, "unit": "%"}
    ]}
  ]
}
